Assay results from BigSolDB 2.1.

Nc1cccc(C(=O)O)c1O
solubility (mole fraction)
Settings	293.2 K	298.2 K	303.2 K	308.2 K	313.2 K
in n-propanol	0.000339	0.00046	0.000522	0.00058	0.000681
in water	0.00012	0.000122	0.000139	0.000148	0.000165
